Test results from ChEMBL document CHEMBL1811782, “The 2010 Philip S. Portoghese Medicinal Chemistry Lectureship: addressing the "core issue" in the design of estrogen receptor ligands” (J Med Chem, 2011).

system: not listed separately; test: Relative binding affinity to estrogen receptor relative to estradiol

| Compound | RBA [%] |
| --- | --- |
| Oc1ccc(-c2cc(-c3ccc(O)cc3)n(-c3ccccc3)n2)cc1 | 0.03 |
| CCc1c(-c2ccc(O)cc2)n[nH]c1-c1ccc(O)cc1 | 0.02 |
| Oc1ccc(-c2cc(-c3ccc(O)cc3)[nH]n2)cc1 | 0.009 |
| CCn1c(-c2ccc(O)cc2)nc(-c2ccccc2)c1-c1ccc(O)cc1 | 0.25 |

Continued, values first:

| RBA [%] | Compound |
| --- | --- |
| 14 | CCc1c(-c2ccc(O)cc2)nn(-c2ccccc2)c1-c1ccc(O)cc1 |
| 0.37 | CCc1c(-c2ccc(O)cc2)nc(-c2ccccc2)n1-c1ccc(O)cc1 |
| 0.38 | CCn1c(-c2ccc(O)cc2)nc(-c2ccc(O)cc2)c1-c1ccc(O)cc1 |
| 19 | CCc1c(-c2ccc(O)cc2)nn(-c2ccc(O)cc2)c1-c1ccc(O)cc1 |

molecular target: T1, Estrogen receptor (Homo sapiens) (UniProt P03372); test: Ratio of estradiol IC50 to compound IC50 for ERalpha receptor by relative binding affinity assay
T1 sequence (whole entry): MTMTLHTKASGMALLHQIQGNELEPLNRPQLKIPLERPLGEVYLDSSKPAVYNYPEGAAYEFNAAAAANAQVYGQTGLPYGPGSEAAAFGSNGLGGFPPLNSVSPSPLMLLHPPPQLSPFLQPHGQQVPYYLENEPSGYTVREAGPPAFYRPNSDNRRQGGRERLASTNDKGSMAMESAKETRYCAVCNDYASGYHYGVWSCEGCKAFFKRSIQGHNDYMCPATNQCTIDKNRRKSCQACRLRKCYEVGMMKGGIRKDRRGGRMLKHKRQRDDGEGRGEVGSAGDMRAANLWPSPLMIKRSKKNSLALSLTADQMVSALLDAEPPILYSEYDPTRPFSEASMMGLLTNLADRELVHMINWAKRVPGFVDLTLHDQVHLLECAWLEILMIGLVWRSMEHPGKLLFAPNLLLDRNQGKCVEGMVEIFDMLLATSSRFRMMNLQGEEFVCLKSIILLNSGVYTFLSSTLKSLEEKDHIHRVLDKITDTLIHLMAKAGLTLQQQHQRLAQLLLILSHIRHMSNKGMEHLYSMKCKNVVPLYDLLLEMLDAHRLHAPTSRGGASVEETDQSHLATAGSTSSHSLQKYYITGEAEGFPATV

| Compound | Ratio IC50 |
| --- | --- |
| Cc1cc(C)c(B(c2c(C)cc(C)cc2C)N(CC(F)(F)F)c2ccc(O)cc2)c(C)c1 | 2.2 |
| CCN(B(c1c(C)cc(C)cc1C)c1c(C)cc(C)cc1C)c1ccc(O)cc1 | 1.3 |
| Cc1cc(C)c(B(Nc2ccc(O)cc2)c2c(C)cc(C)cc2C)c(C)c1 | 0.013 |
| Cc1cccc(C)c1B(c1c(C)cccc1C)N(CC(F)(F)F)c1ccc(O)cc1 | 10 |
| Cc1cc(C)c(B(c2c(C)cc(C)cc2C)N(C)c2ccc(O)cc2)c(C)c1 | 1.3 |

Continued, values first:

| Ratio IC50 | Compound |
| --- | --- |
| 0.16 | CCCCCN(B(c1c(C)cc(C)cc1C)c1c(C)cc(C)cc1C)c1ccc(O)cc1 |
| 23 | Cc1cccc(C)c1B(c1c(C)cccc1C)N(C)c1ccc(O)cc1 |

molecular target: Estrogen receptor beta (Homo sapiens) (UniProt Q92731); test: Ratio of estradiol IC50 to compound IC50 for ERbeta receptor by relative binding affinity assay
Sequence (Q92731 whole entry): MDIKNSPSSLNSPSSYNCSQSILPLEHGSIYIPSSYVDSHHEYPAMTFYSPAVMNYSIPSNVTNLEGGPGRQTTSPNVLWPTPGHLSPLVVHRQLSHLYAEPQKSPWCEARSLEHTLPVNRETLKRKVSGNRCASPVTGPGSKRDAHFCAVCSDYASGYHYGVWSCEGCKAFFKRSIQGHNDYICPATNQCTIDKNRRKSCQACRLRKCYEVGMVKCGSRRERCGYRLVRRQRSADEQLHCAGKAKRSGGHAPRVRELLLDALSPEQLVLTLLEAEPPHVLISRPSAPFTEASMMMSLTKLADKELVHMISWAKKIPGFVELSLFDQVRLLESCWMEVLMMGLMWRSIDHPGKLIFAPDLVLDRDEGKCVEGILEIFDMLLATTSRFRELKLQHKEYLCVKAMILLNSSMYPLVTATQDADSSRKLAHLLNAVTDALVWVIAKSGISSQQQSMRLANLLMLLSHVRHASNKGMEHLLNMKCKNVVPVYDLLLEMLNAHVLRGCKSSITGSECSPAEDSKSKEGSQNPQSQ

| Compound | Ratio IC50 |
| --- | --- |
| Cc1cc(C)c(B(c2c(C)cc(C)cc2C)N(CC(F)(F)F)c2ccc(O)cc2)c(C)c1 | 1.3 |
| CCN(B(c1c(C)cc(C)cc1C)c1c(C)cc(C)cc1C)c1ccc(O)cc1 | 1.1 |
| Cc1cc(C)c(B(Nc2ccc(O)cc2)c2c(C)cc(C)cc2C)c(C)c1 | 0.18 |
| Cc1cccc(C)c1B(c1c(C)cccc1C)N(CC(F)(F)F)c1ccc(O)cc1 | 5.8 |
| Cc1cc(C)c(B(c2c(C)cc(C)cc2C)N(C)c2ccc(O)cc2)c(C)c1 | 3.1 |

Now from value to compound:

| Ratio IC50 | Compound |
| --- | --- |
| 0.12 | CCCCCN(B(c1c(C)cc(C)cc1C)c1c(C)cc(C)cc1C)c1ccc(O)cc1 |
| 16 | Cc1cccc(C)c1B(c1c(C)cccc1C)N(C)c1ccc(O)cc1 |
